Measured values: US20180318199A1, “Pharmaceutical Composition Having Anti-Aging Properties against High-Glucose” (TAIWAN LEADER BIOTECH CORP., priority 2017, published 2018)

Legend:
Assay type in all cases: cell-based, human
HNDFs = assay: Cell-cycle distribution by flow cytometry (PI) in HNDFs; conditions: ANM 10 μM or NAC 100 μM + HG 30 mM, 72 h; HG 71.2%, NG 46.5%
Description: Senescence is well-defined as an irreversible arrest in the G0/G1 phase of the cell-cycle, triggered by various physiological and chemical stimuli including HG. It is thus paradoxical that HG-induced senescence is associated with cell-cycle arrest. Please refer to FIG. 3A˜FIG. 3C, which are views showing HG-induced growth arrest blocked by ANM in HNDFs. As shown in the figures, to further explore this paradoxical relationship, HNDFs are treated with HG and ANM or N-acetylcysteine (NAC). In FIG. 3A, HNDFs are incubated with ANM (10 μM) or NAC (100 μM) in the presence of HG (30 mM) for 72 h. Cell-cycle distribution is measured by flow cytometer using PI. Percentage of cell population in each transition phase is shown in a histogram view.
HNDFs at a density of 5×10^5 cells in 10 cm dishes are treated with ANM or NAC in the presence or absence of HG for 72 h. Cells are collected, washed with PBS and fixed in 95% cold-ethanol, and kept at −20° C. overnight. The cell pellet is then washed again with PBS and centrifuged at 1500×g for 5 min. The pellet is re-suspended in 1 mL PI/Triton X-100 (20 μg/mL PI, 0.1% Triton X-100 and 0.2 mg/mL RNAse) and incubated on ice for 30 min. The total cellular DNA content is analyzed with a flow cytometer (Beckman Coulter FC500). Data are acquired and analyzed using CXP software (Beckman Coulter).

[1] = system: pRb, cyclin D1, cyclin E, cyclin B1, CDK4, CDK6, CDK2 and Cdc2; assay: Western blot of cell-cycle regulatory proteins in HNDFs; conditions: 72 h; for cyclin D1, CDK4, CDK6, cyclin E and CDK2 protein levels under HG: ANM 10 μM or NAC 100 μM + HG 30 mM
Description: To further clarify this effect, G1-S transition regulatory proteins are determined by immunoblotting. In FIG. 3B, western blot analysis is performed to determine the expression levels of cell-cycle regulatory proteins including, pRb, cyclin D1, cyclin E, cyclin B1, CDK4, CDK6, CDK2 and Cdc2; and GAPDH is served as an internal control.
(§1) Cells are lysed by either RIPA lysis buffer or nuclear and cytoplasmic extraction reagents (Thermo Fisher Scientific). Protein concentrations are determined by Bio-Rad protein assay reagent (Bio-Rad Laboratories, Hercules, Calif.). Equal amounts of protein samples (60 μg) are separated by 7-12% SDS-PAGE and the separated proteins are transferred onto polyvinylidene […] (PVDC) membrane overnight. The transferred protein membranes are blocked with 5% non-fat dried milk for 30 min, followed by incubation with specific primary antibodies overnight, and either horseradish peroxidase-conjugated goat anti-rabbit or anti-mouse antibodies for 2 h. The blots are detected using VL Chemi-Smart 3000 (Viogene Biotek, Sunnyvale, Calif.) with the enhanced chemiluminescence (ECL) western blotting reagent (Millipore, Billerica, Mass.).

SMP30 = SMP30 immunofluorescence in HNDFs; conditions: ANM 10 μM or NAC 100 μM + HG 30 mM, 72 h
Description: In FIG. 4C, SMP30 expression provided by ANM is examined. HNDFs are incubated with ANM (10 μM) or NAC (100 μM) in the presence or absence of HG (30 mM) for 72 h. The protein expression of SMP30 is measured by immunofluorescence using SMP30 specific primary antibody and fluorescein isothiocyanate-conjugated secondary antibody (green). The cellular localization of SMP30 is photographed using a fluorescence microscope. 4′,6-diamidino-2-phenylindole (DAPI) (1 μM) is used to stain the nucleus.
HNDFs at a density of 1×10^4 cells/well are cultured in an eight-well glass Nunc Lab-Tek chamber (ThermoFisher Scientific, Waltham, Mass.). Cells are treated with ANM or NAC in the presence or absence of HG for 2-72 h. After incubation, culture medium is removed and cells are fixed in 4% paraformaldehyde for 15 min, permeabilized with 0.1% Triton X-100 for 10 min, washed and blocked with 10% FBS in PBS, and then incubated overnight with the corresponding primary antibodies in 1.5% FBS. The cells are then incubated with the fluorescein isothiocyanate (FITC)-conjugated secondary antibody (Alexa fluor 488, ThermoFisher Scientific) for another 1 h in 6% bovine serum albumin (BSA). Next, the cells are stained with 1 μg/mL 4′,6-diamidino-2-phenylindole (DAPI, Cell Signaling Technology) for 5 min, washed with PBS, and visualized using a fluorescence microscope (Motic Electric Group) at 40× magnification.

HO-1 and NQO-1 [2] = assay: Western blot of HO-1 and NQO-1 in HNDFs; conditions: ANM 10 μM or NAC 100 μM, 24 h; for HO-1 protein expression: NG and HG groups
Description: In FIG. 5D, to determine the protein expression levels of HO-1, NQO-1 and Nrf2, HNDFs are incubated with ANM (10 μM) or NAC (100 μM) for 24 h. Total cell lysates are prepared and subjected to western blot analysis to monitor the expression levels of HO-1, NQO-1 and Nrf2.
as §1

HO-1 and NQO-1 [3] = assay: Western blot of HO-1 and NQO-1 in HUVECs; conditions: for NQO-1 expression in HUVECs: western blot, HG
Description: The intracellular ROS level is quantified by utilizing DCFH-DA assay. […] However, treatment of HUVECs with ANM resulted reduced ROS levels (6.1-fold), compared with HUVECs in HG that are not treated with ANM. In addition, in FIG. 9G, western blot analysis is performed to determine the protein expression levels of HO-1 and NQO-1.
as §1

| Structure (SMILES) | cell population in the G0/G1 phase (HNDFs) | cyclin B1 and Cdc2 levels ([1]; ANM 10 μM + HG 30 mM) | protein Rb phosphorylation under HG ([1]; ANM 10 μM + HG 30 mM) | cyclin D1, CDK4, CDK6, cyclin E and CDK2 protein levels under HG [1] | HG-induced reduction in SMP30 (immunofluorescence) (SMP30) | NQO-1 protein expression (HO-1 and NQO-1 [2]) | HO-1 protein expression (HO-1 and NQO-1 [2]) | HO-1 expression in HUVECs in HG (HO-1 and NQO-1 [3]; ANM 10 μM or RES 5 μM + HG) | NQO-1 expression in HUVECs (HO-1 and NQO-1 [3]) |
| --- | --- | --- | --- | --- | --- | --- | --- | --- | --- |
| C=C(CCC(C)C1CCC2C3=C(C(=O)C(O)C21C)C1(C)CCC(O)C(C)C1CC3)C(C)C(=O)O (stereo not drawn) [ANM, antcin M] | 49.5% | unaffected | significantly inhibits | upregulated | significantly prevented | unaffected | significantly increase | significantly increase | unaffected |
| CC(=O)N[C@@H](CS)C(=O)O [NAC, N-acetylcysteine, reference compound] | partially blocks | – | – | partially rescues | partially prevented | unaffected | significantly increase | – | unaffected |
